Data from patent US20080207502A1, “Anti-Angiogenic Peptides and Methods of Use Thereof” (SOPHERION THERAPEUTICS, INC., priority 2004, published 2008).

Experiments:
B16 melanoma tumor = assay: Subcutaneous B16 melanoma tumor model in vivo; parameters: species or system mouse; conditions: 20 mg/kg daily IP, vs untreated controls, FIG. 12
Protocol: Because of the importance of the angiogenic process for tumorigenesis, miniproteins as described herein, were hypothesized to show good anti-tumor activity. The peptides of the invention were tested in an in vivo model of anti-tumor activity. This model compares the growth of sub cutaneous B16 melanoma tumor in vivo either untreated or treated with various amount of miniproteins described in this application. This model is widely accepted in the art as a model to test the anti-tumor activity of compounds that inhibit tumor growth because they have anti-angiogenic activity.
Male C57BL/6 mice were obtained with a mean body weight of 20±2 g. Mouse B16-F1 melanoma cells were implanted subcutaneously (5×10^5 cell per animal). Peptides (formulated in water) were administered ip daily at the amount indicated starting the day after cells injection. In general, tumors became palpable around 9 days after injection of cells. Tumor were then measured every 2 days.

[1] = Biological activity of D-amino acid versions of ST100,038 (assay not specified); conditions: ST100,045 tested against ST100,059 and a control
Protocol: D-amino acid peptides can be made by generating a D-amino acid peptide with the same sequence as a L-amino acid peptide or by preparing a retro inverso form of a peptide. ST100,045 (SEQ ID NO.: 31) has the same sequence as ST100,038 (SEQ ID NO.: 29) was tested against ST100,059 (SEQ ID NO.: 30) which is the retro inverso version of ST100,038 and a control.

[2] = system: Bovine Retinal Endothelial Cells (BRE); assay: VEGF-mediated survival/proliferation of BRE cells (WST1); format: cell-based; conditions: increasing doses, FIG. 5
Protocol: (§1) The anti-angiogenic activities of the peptides were tested by measuring the level of inhibition of VEGF and bFGF mediated survival/proliferation of Bovine Retinal Endothelial Cells (BRE), Human Dermal Microvasculature Endothelial Cells, and Human Umbilical Vein Endothelial Cells, all of which are standard cell lines used to test anti-angiogenic compounds.
Bovine retinal endothelial (BRE) cells were maintained in Cambrex EG2 media. For non-adherent cell assays, on day one cells were starved for either 6 hours or overnight, then trypsinized and plated in 96-well plates in 100 μl of Optimem plus 1% fetal bovine serum (FBS). One hundred μl of Optimem plus 1% FBS was added to the wells containing, where appropriate, VEGF to a final concentration of 25 ng/ml, and the various peptides to final concentrations as described. For adherent cells, cells were plated in 96-well plates in complete media, allowed to adhere overnight, washed in starvation media (Optimem plus 1% FBS) and then starved during the day. At the end of the day, 100 μl of Optimem plus 1% FBS was added to the wells containing, where appropriate, VEGF to a final concentration of 25 ng/ml and the various peptides to final concentrations as described.
(§2) In all cases, after 72 hours incubation, the amount of live cells in each well was measured with the WST1 assay (Roche).

[3] = Heparin binding activity by liquid chromatography on Hi Trap Heparin HP column (NaCl elution); conditions: step gradient 500-1000 mM NaCl in 10 mM NaH2PO4 pH 7
Source text: Liquid chromatography was used to determine the relative levels of heparin binding activity of the individual heparin binding domains and of the anti-angiogenic miniproteins that contains them. In this assay, the strength of the heparin binding activity is proportional to the amount of NaCl that is required to elute the peptide bound to the heparin column. Peptides with low binding activity are eluted with lower NaCl concentration, whereas higher concentrations of NaCl are required for peptides with higher binding activity.
Hi Trap Heparin HP column (1 ml, Amersham Biosciences) was equilibrated with 10 column volumes (CV) of equilibration (EQ) buffer=10 mM NaH2PO4pH 7. All buffers were loaded onto columns via syringes. 500 μl fractions are collected (flow rate=1 ml/minute). 500 μg of peptide (1 mg/ml, resuspended in EQ buffer) was added to each column and the flow through was collected for analysis. The columns were then washed with 3 CV of EQ buffer. Peptides are then eluted with a step gradient of 500, 625, 750, 875 mM NaCl in EQ buffer, 2 CV per each step. A final step of 3 CV of 1000 mM NaCl in EQ buffer was collected in 500 μl fractions. The A210 nm was measured using EQ and elution buffers as blanks.

[4] = system: RPMI-8226 human myeloma xenografts; assay: RPMI-8226 human myeloma subcutaneous xenograft model in scid mice; format: in vivo; conditions: vs untreated controls, FIG. 16
Protocol: Anti-tumor efficacy of test peptides was evaluated against RPMI-8226 human myeloma xenografts implanted subcutaneously (sc) in severe compromised immunodeficient (scid) mice.
Studies generally consisted of randomly-assigned groups of 8 or 10 mice per group, which were implanted sc with myeloma fragments (30-40 mg). In addition to groups tested with test peptides, studies usually included a vehicle-treated control group and a positive control group treated with an agent known to be active in the RPMI-8226 model. In one type of schedule, mice were treated IP with either vehicle or test peptides starting one day after tumor implantation (implantation day defined as Day 0). Test peptides and vehicle were generally administered IP daily for 3-4 weeks.
Dosing solutions of the test peptides were prepared weekly and kept at −20° C. between injections. […] Each tumor was measured by caliper in two dimensions and converted to tumor mass using the formula for a prolate ellipsoid (a X b^2/2), where a is the longer dimension and b is the smaller dimension, and assuming unit density (1 mm^3=1 mg). Tumor measurements were recorded twice weekly. Body weights were also recorded twice weekly. Anti-tumor activity was assessed by the delay in tumor growth of the treated groups in comparison to the vehicle-treated control group, partial and complete regressions, and tumor-free survivors. […]

[5] = system: human dermal microvasculature endothelial cells; assay: VEGF mediated survival/proliferation in human dermal microvasculature endothelial cells; format: cell-based; conditions: 30, 100, and 200 μg/ml, FIG. 8
Protocol: as §1, §2
(§3) In a further experiment, the anti-angiogenic activity of peptide ST100,061 (SEQ ID NO.: 3), a derivative of ST100,032 (SEQ ID NO.: 1), at concentrations of 30, 100, and 200 μg/ml was tested by measuring the level of inhibition of VEGF and bFGF mediated survival/proliferation in human dermal microvasculature endothelial cells.

[6] = system: human dermal microvasculature endothelial cells; assay: bFGF mediated survival/proliferation in human dermal microvasculature endothelial cells; format: cell-based; conditions: 30, 100, and 200 μg/ml, FIG. 8
Protocol: as §1, §2, §3

[7] = system: Human Umbilical Vein Endothelial Cells; assay: bFGF-mediated survival/proliferation of human umbilical vein endothelial cells (WST1); format: cell-based
Protocol: as §1
Human umbilical cord endothelial (HUVEC) cells were maintained in Cambrex EGM-2MV media. On day one, cells were starved overnight in 1% FBS in M200 media (Cascade Biologicals). The morning after, the media were replaced with serum-free media (control) or media containing 25 ng/ml of human VEGF165 and the various peptides to final concentrations as described.
as §2

L1210 murine leukemia = L1210 murine leukemia intravenous model in vivo; parameters: species or system mouse; conditions: dosed IP, DBA/2 mice, FIG. 15a
Protocol: Antitumor activity of test peptides, administered intraperitoneally (IP), were evaluated against L1210 murine leukemia cells implanted intravenously (IV) in DBA/2 mice.
Studies generally consisted of randomly-assigned groups of 8 mice per group, which were inoculated IV with 1×10^5 cells per mouse from an in vivo leukemia cell line. In addition to groups tested with test peptides, studies usually included a vehicle-treated control group and a positive control group treated with an agent known to be active in the L1210 leukemia model. Starting one day after tumor inoculation (inoculation day defined as Day 0), mice were treated IP with either vehicle or test peptides in various schedules. Generally this consisted of treatment every other day for approximately 1 week (e.g., Days 1, 3, 5 and 7). A positive agent (e.g., cyclophosphamide) was usually given as a single IP injection on Day 1. All dosing solutions were prepared on each day of treatment. Survival was monitored daily and body weights were measured twice weekly. Anti-tumor activity was assessed by the increase in lifespan of the treated groups in comparison to the vehicle-treated control group. Studies with the L1210 leukemia model were limited to 30 days.

[8] = system: mouse leukemia L1210 cells; assay: Tumor cell proliferation (WST-1), L1210; format: cell-based; conditions: FIG. 11
Protocol: Peptides to be tested were prepared at a stock concentration of 10 mM in sterile phosphate buffered saline. Cancer cell lines obtained from the American Type Culture Collection (MG-63, HT1080, A498, BxPC3, 786-0, PC-3, B16F1, B16F10, P388D1, Jurkat, MOLT4, THP-1, U-937, L1210, RPMI 8226, NCI H929, U266B1, K562) were cultured under appropriate conditions as described in the literature. Cell culture media and reagents were obtained from ATCC (Manassas, Va.), Invitrogen (Carlsbad, Calif.) or Mediatech (Herndon, Va.). Exponentially growing cultures were used for cell proliferation assays. Adherent cells were plated at a concentration of 100000 cells per milliter in growth media overnight (18-24 h) and treated the next day in a low serum media (growth media with 1% FBS for MG-63, HT1080, A498, BxPC3, PC-3, B16F1, B16F10. 786-0 cells were treated in media with 5% FBS). Suspension cell lines (P388D1, Jurkat, MOLT4, THP-1, U-937, L1210, RPMI 8226, NCI H929, U266B1, and K562) were diluted to a concentration of 100,000 cells per ml and treated on the same day with peptides. Peptides were diluted in treatment media and cells were treated for 48 or 72 hours depending on the cell line. Each dose was tested in triplicate for each experiment, and experiments were repeated for a minimum of three discrete times. After incubation, the relative number of cells was determined using WST-1 (Roche Applied Science). A 9.5 μl aliquot of WST-1 was added to each well. The plate was immediately read at 440 nm using a Bio-Tek PowerWave XS microplate reader, incubated for 2-3 hours at 37° C. and then read again. Cell proliferation was determined as the percent of the control cell proliferation. The absorbance of each well at time 0 was subtracted from the value of the final reading. Afterwards the blank values were averaged and subtracted from each test and control value. Finally, each test absorbance was divided by the average of the control absorbances and multiplied by 100 to obtain the percent of control. […]

Row | Sequence | inhibition of tumor growth (B16 melanoma tumor) | biologically active [1] | inhibition of VEGF stimulation [2] | [NaCl] for elution [3] | inhibition of tumor growth ([4]; 100 mg/kg daily IP) | inhibition of VEGF mediated survival/proliferation [5] | inhibition of bFGF mediated survival/proliferation [6] | inhibition of bFGF mediated survival ([7]; compared with ST100,061, FIG. 9) | inhibition of bFGF mediated survival ([7]; comparison of several peptides, FIG. 10) | mice (cured mice) survived longer than 30 days (L1210 murine leukemia) | survival (L1210 murine leukemia) | blocked cell proliferation or induced cell death [8] | inhibition of tumor growth ([4]; 25 mg/kg daily IP)
1 | PSQSSHPPLSTA (listed as Homo sapiens) [ST100,059] | clearly inhibit tumor growth | biologically active | inhibited with increasing doses | 0 mM | does not inhibit tumor growth | – | – | – | – | – | – | – | –
2 | PYDGRGDSVVYGLRKKKAARGRRAARGRR (listed as Homo sapiens) [ST100,061, a derivative of ST100,032] | may be less active | – | – | – | – | effective in inhibiting both VEGF and bFGF | effective in inhibiting both VEGF and bFGF | – | – | – | – | – | –
3 | RRGRAARRGRAAKKKRLGYVVSDGRGDYP [ST100,064] | – | – | – | – | – | – | – | as effectively as ST100,061 | the most active in inhibiting bFGF stimulation | Sixty to eighty percent | statistically significant increases in survival | able to block cell proliferation and induce cell death | able to inhibit tumor growth
